Data reported in paper PMC5118709, “Identification of Polo-like kinase 1 interaction inhibitors using a novel cell-based assay” (Scientific Reports, 2016).
“Also recorded” adds a separate entry of the source. Where no end group is shown, it is not given here. [ ]: non-standard residue; d: D form. The star is where a group is joined. FITC = O=C1OC2(c3ccc(O)cc3Oc3cc(O)ccc32)c2ccc(NC(=S)*)cc21; pT = C[C@@H](OP(=O)(O)O)[C@H](N)C(=O)O

Key:
GST-PBD367-603 of Plk1 = GST-PBD367-603 of Plk1 (Homo sapiens, UniProt P53350); experiment: fluorescence polarization assay PBD-phosphopeptide
HeLa cells [1] = experiment: mitotic defect phenotypes by immunofluorescence; assay type: cell-based; settings: 10 μM, 7 h
Method: HeLa cells were treated with these compounds along with the known PBD inhibitors PPG, TQ, Poloxin and the KD inhibitor BI2536 as controls, and then stained against α-Tubulin, pericentrin (a centrosome marker) and DNA (Fig. 2D). In all cases, there was a marked increase in the frequency of disorganized spindles compared with DMSO-treated control cells. This is expected as Plk1 plays multiple roles in spindle assembly and maintenance. […] Cpd 69, an analog of compound 122, induced a similar phenotype at lower concentrations (data not shown). This phenotype was not seen after treatment with BI2536.
For the mitotic defect phenotypes, 25 200 HeLa cells were plated on poly-L-lysine coated round cover slips in 24-well plates. The day after, cells were treated for 7 hours, and then washed with PHEM buffer at 37 °C before fixation in PHEM buffer containing 4% formaldehyde for 20 minutes at 37 °C. Cells were washed three times with TBS-tween 0.1% and plate was kept overnight at 4 °C. Next steps were followed as previously described except that coverslips were incubated in a dark wet chamber with antibodies. Anti-pericentrin (diluted 1:1000; Abcam), anti-α-tubulin DM1A (diluted 1:500; Sigma-Aldrich), Alexa Fluor 488 anti-rabbit and Texas-Red anti-mouse (diluted 1:200; Invitrogen) were used. Coverslips were mounted on slide using Vectashield media containing DAPI (Vector Laboratories).
Images shown in Fig. 2D were acquired on an AxioImager microscope (Carl Zeiss) with a 100x oil objective (NA 1.4 DICIII) and an AxioCam HRM camera (Carl Zeiss) using AxioVision software (Carl Zeiss).

Plk1-Map interaction [2] = molecular target: T1, Plk1-Map interaction (Homo sapiens, UniProt P53350); experiment: BRET Plk1-Map, transient Luc-Map/Plk1-GFP in HEK293T; assay type: cell-based; design: cDNAs for the human full length Plk1; expressed in transfected cells; settings: confirmation screen
Method: (§1) For the confirmation screen, the same procedure as for the primary screen was followed, except that HEK293T cells were also seeded at 6.25 millions of cells per simple CellStack on day 1 for transient transfections. These cells were transfected on day 3 with Luc-Map (5 μg) and Plk1-GFP (25 μg) pIRESHyg3 plasmids using polyethylenimine (PEI). To identify false-positives compounds, Luc-CRAF (4 μg) and GFP-BRAF (20 μg) plasmids were also transfected with PEI following the published procedure.

CRAF-BRAF = molecular target: T2, CRAF-BRAF (Homo sapiens, UniProt P04049+P15056); experiment: control BRET CRAF-BRAF (transient); assay type: cell-based
T2 construct: expressed in transfected cells; host or cells: HEK293T, transient transfection with PEI
Method: (§2) We used our cell-based assay to screen a library of 112 983 compounds available in-house at IRIC’s High-Throughput Screening (HTS) platform (see Materials & Methods). Compounds were tested on cells in 384-well plates at concentrations between 10 μM and 25 μM, depending on their concentration in the original stocks solutions. BRET readings were taken 2 hours after treatment. Results obtained show a tight, close to normal distribution centered around zero inhibition relative to DMSO-treated controls (Fig. 1D). Compounds inducing at least 30% BRET inhibition were selected. From these, auto-fluorescent compounds and those that induced more than 90% reduction in RLucII luminescence were removed, leaving 800 primary hits, that we then re-tested using the same assay. In parallel, we tested these compounds in a control BRET assay for an unrelated pair of interacting proteins (BRAF-CRAF[46]) to exclude false-positive compounds that could reduce the BRET signal by interfering with light or by modifying the activity of GFP or Luc.
as §1

Plk1-Map interaction [3] = molecular target: T1, Plk1-Map interaction; experiment: BRET Plk1-Map, stable HEK293T Plk1-Luc/GFP-Map cell line; assay type: cell-based; design: cDNAs for the human full length Plk1; expressed in transfected cells
Source text: To develop a cell-based assay for the identification of Plk1 interaction inhibitors, we used Bioluminescence Resonance Energy Transfer (BRET)[42][43]. The assay monitors the interaction in HEK293T cells between Plk1 and Map205, a protein that we previously identified as an interactor of Drosophila Polo (Plk1 ortholog) on its PBD[44]. Although no ortholog of Drosophila Map205 has been found in vertebrates, this protein robustly interacts with vertebrate Plk1. […] Importantly, crystallography with zebrafish Plk1 has recently shown that Map205 nevertheless docks in the canonical phosphopeptide binding site of the PBD, with the natural phospho-mimetic Glu314 residue (Fig. 1A)[45]. In our assay, human Plk1 and a fragment of Drosophila Map205 (Map205_254-416 = Map) are respectively fused to Renilla luciferase II (Luc) and GFP10 (GFP), giving rise to energy transfer when the proteins are in close proximity (Fig. 1B). […] All combinations of Plk1 and Map tagged with Luc and GFP were tested (Supplementary Fig. S1). The Plk1-Luc/GFP-Map combination was selected because it yielded the highest BRET dynamic window. We then generated clonal stable cell lines co-expressing these two fusion proteins. These cell lines behaved very similarly to each other in BRET, and we selected one line that gave a high and reproducible BRET signal, with a Z′ score of 0.78, indicative of a robust assay for the purpose of a chemical screen (Supplementary Fig. S1).
as §2
For BRET on transiently transfected cells, 48 hours after the transfection, medium was removed, cells were washed twice with PBS, and then Tyrode solution (140 mM NaCl, 2.7 mM KCl, 12 mM NaHCO3, 5.6 mM D-glucose, 0.49 mM MgCl2, 0.37 mM NaH2PO4, 25 mM HEPES, pH 7.4, where 1 mM CaCl2 was freshly added) was added to the cells. Total fluorescence was first measured using a FlexStation II microplate reader (Molecular Devices), where the GFP10 was excited at 400 nm and read at 510 nm. Then, cells were treated for 5 minutes with 2.5 μM coelenterazine 400a (Gold Technology) before reading BRET2 using the Mithras LB940 microplate reader (Berthold Technologies). BRET2 signal corresponds to the light emitted by the GFP10 acceptor constructs (515 nm ± 20 nm) divided by the light emitted by the RlucII donor constructs (400 nm ± 70 nm). Net BRET2 was calculated by subtracting the background BRET ratio of the RLucII plasmid alone from the BRET ratio obtained by the two BRET partners. The Net BRET2 was plotted according to the GFP10/RLucII ratio, which was obtained by dividing the total fluorescence by the RLucII emission.
For the high throughput chemical screen, cells were amplified and frozen as multiple 1 ml aliquots containing 25 millions of stable HEK293T Plk1-Luc/GFP-Map cells to ensure that cells at the same passage number are used during the screen. […] Five days later, cells were counted and re-suspended in Tyrode solution. […]

HeLa cells [4] = experiment: mitotic index assay (phospho-Histone H3) in HeLa cells; assay type: cell-based; settings: 10 μM
Plk1-Map interaction [5] = molecular target: T1, Plk1-Map interaction; experiment: LUMIER co-immunoprecipitation assay Plk1-Map
Method: After cell lysis, GFP-Plk1 was immunoprecipitated and co-purified Map-Luc was measured by luminescence following addition of the luciferase substrate, coelenterazine.
Half a million stably transfected Map205-RLucII/GFP10-Plk1 cells in Tyrode solution were seeded per well in a 96-well plate and allowed to settle for 30 min at 37 °C. […] Plates were then centrifuged at 4 °C at 3000 rpm for 5 minutes to pellet cells. Cells were then lysed with the IP buffer (20 mM Tris pH 7.5, 150 mM NaCl, 2 mM EGTA, 0.5% NP-40, 1 mM DTT, PMSF, aprotinin and leupeptin) and incubated on ice for 20 minutes. Plates were centrifuged again at 4 °C at 3400 rpm for 10 minutes, and the soluble fraction was transferred into a new 96-well plate. Note that 10 μl of this fraction was transferred in white 96-well plates from which the luminescence was read as a measure of the input amount of cell lysate for the co-IP. GFP-Plk1 was immunoprecipitated by adding 0.35 μl of anti-GFP antibody (Invitrogen). Plates were sealed and incubated on a rotator at 4 °C for 30 minutes. Then, 4 μl of pre-washed protein A magnetic beads (Invitrogen) were added to each well. Plates were sealed and incubated at 4 °C for 1h30. The extracts + beads were then transferred in a 96-well PCR plates and beads were washed 3 times with the IP buffer using a magnetic 96-well rack. The fourth wash was done in Tyrode solution, then beads were re-suspended with it and transferred in a white 96-well plate. […] Tyrode was also added to the plates containing the input fraction, then Coelenterazine h was added to the wells, and enhanced luminescence was read as described above.

HEK293T cells = experiment: mitotic index assay (phospho-Histone H3) in HEK293T cells; settings: 10 μM
Method: For the mitotic index assay, 4000 HeLa cells or 5000 HEK293T cells per well were seeded in a 96-well plate. The day after, cells were incubated for 7 hours with different compounds, and then fixed by adding formaldehyde (4% final concentration) directly to each well. Plates were incubated 20 minutes at 37 °C, and then wells were rinsed three times with TBS-Tween 0.1%. A 1 hour block with PHEM buffer (60 mM Pipes, 25 mM HEPES, 10 mM EGTA, 4 mM MgSO4, pH 6.9) containing 2% BSA and 0.1% triton was performed, before addition of the primary antibody to the wells. The anti-phospho-Histone H3 (Ser10) antibody (EMD Millipore) was diluted 1:300 in PHEM buffer containing 2% BSA and added to the wells for 2 hours at room temperature in the dark. […] Plates were incubated for 1h 30 at room temperature in the dark, and then wells were washed 3 times with TBS-Tween 0.1%. A solution of Mowiol containing DAPI was finally added to the wells. Plates were kept at 4 °C in the dark until imaging using the 20x objective on an Operetta system (Perkin Elmer inc.). The mitotic index, corresponding to the percentage of pHH3 positive cells relative to the total number of DAPI-stained cells detected was calculated by the Operetta using the Harmony 3.5 software. Experiments were done in triplicates.

His-PBD326-603 [6] = molecular target: T3, His-PBD326-603 (Homo sapiens, UniProt P53350); experiment: covalent reaction with the PBD by SDS-PAGE; design: His-PBD326-603 was expressed in E.coli BL21; made in house; host or cells: E. coli BL21; settings: 2.5 mM, 3-4 h
Method: Vinyl sulfones are reactive species that can alkylate substrates as a result of a nucleophilic attack on the distal carbon of the vinyl group.
Membranes were blocked with TBS-Tween 0.1% containing 5% of dry milk powder, then incubated with anti-Plk1 (F-8; Santa Cruz Biotechnologies Inc.) or with a 6x-His epitope tag antibody (Invitrogen; gift from Gregory Emery). HRP-conjugated goat anti-mouse IgG (Jackson ImmunoResearch Laboratories inc.) was used and TBS-Tween 0.1% was used for the washes before and after the secondary antibody. […] Gels were imaged using a ChemiDoc MP system (BioRad).

His-PBD326-603 [7] = molecular target: T3, His-PBD326-603; experiment: alkylation sites on the PBD by LC-MS/MS
Method: Proteins were precipitated using acetone and resuspended in 100 μl. Sample reduction was performed by adding 50 μl of 5 mM TCEP in 50 mM ammonium bicarbonate. Samples were then added 50 μl of chloroacetamide 50 mM with ammonium bicarbonate 50 mM to protect exposed cysteine residues. One microgram of trypsin was added and the digestion was performed for 8 h at 37 °C. […] Each full MS spectrum acquired with a 70,000 resolution was followed by 12 MS/MS spectra, where the 12 most abundant multiply charged ions were selected for MS/MS sequencing. Peptides were identified using Peaks 8.0 (Bioinformatics Solution Inc.) and peptide sequences were blasted against the Human Uniprot database. Tolerance was set at 10 ppm for precursor and 0.01 Da for fragment ions during data processing. For the post-translational modification of proteins, occurrence of carbamidomethylation (C), oxidation (M), deamidation (NQ) was considered as well as addition of TQ (C, K), Poloxin (K, C, H), and vinyl sulfone (C, H, K) when needed.

[8] = reaction with amino-protected amino acids (LC-MS); settings: room temperature
Method: Vinyl sulfones are reactive species that can alkylate substrates as a result of a nucleophilic attack on the distal carbon of the vinyl group. To evaluate the potential of Cpd 161 (vinyl sulfone) to react with proteins, we tested its reaction with nucleophilic amino acid side chains groups. […] To test whether Cpd 161 could react covalently with the PBD, we incubated them together and examined the molecular mass of the protein by SDS-PAGE (Fig. 7). […] Consistent with this idea, the extent of the shift depended on the concentration of Cpd 161 used (Fig. 7B) and also on the incubation time (Fig. 7C).
To a stirred solution of electrophile (0.02 mmol) and amino acid (1- 1.5eq) in DMF (0.3 ml) were added a few drops of a diluted aqueous solution of sodium bicarbonate. The reaction was monitored using an Agilent 6120 Quadrupole LC/MS system (Agilent Technologies). In all cases, the molecular ion of the product was observed.

mitosis = settings: cited from earlier work
[9] = molecular target: T4, Human Plk1 full length protein (human, UniProt P53350 1-603); experiment: fluorescence polarisation; FITC-Map peptide with the PBD or full-length Plk1 (Supplementary Fig. S3); compounds tested up to 100 uM; settings: both partners purified
T4 construct: Polo-like kinase 1 (Plk1), human, full length protein; also called full-length Plk1; whole Plk1; source: bought: Abcam

human GST-PBD_(367-603) = molecular target: T5, human GST-PBD_(367-603) (human, UniProt P53350 367-603); experiment: fluorescence polarisation; competition: FITC-phosphopeptide 10 nM and GST-PBD 367-603 at 38 nM (EC65), unlabeled phosphopeptide at increasing concentrations; FP buffer; settings: both partners purified
T5 construct: also called Polo-Box Domain of Plk1; source: bought: Sigma-Aldrich
T5 sequence (P53350 367-603): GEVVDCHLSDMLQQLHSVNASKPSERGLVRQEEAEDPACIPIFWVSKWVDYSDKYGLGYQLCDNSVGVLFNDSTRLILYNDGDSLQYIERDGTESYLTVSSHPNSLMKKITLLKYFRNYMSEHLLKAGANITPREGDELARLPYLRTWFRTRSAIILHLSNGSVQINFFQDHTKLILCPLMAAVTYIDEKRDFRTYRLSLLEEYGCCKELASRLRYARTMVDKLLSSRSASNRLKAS

T1 sequence (P53350 whole entry): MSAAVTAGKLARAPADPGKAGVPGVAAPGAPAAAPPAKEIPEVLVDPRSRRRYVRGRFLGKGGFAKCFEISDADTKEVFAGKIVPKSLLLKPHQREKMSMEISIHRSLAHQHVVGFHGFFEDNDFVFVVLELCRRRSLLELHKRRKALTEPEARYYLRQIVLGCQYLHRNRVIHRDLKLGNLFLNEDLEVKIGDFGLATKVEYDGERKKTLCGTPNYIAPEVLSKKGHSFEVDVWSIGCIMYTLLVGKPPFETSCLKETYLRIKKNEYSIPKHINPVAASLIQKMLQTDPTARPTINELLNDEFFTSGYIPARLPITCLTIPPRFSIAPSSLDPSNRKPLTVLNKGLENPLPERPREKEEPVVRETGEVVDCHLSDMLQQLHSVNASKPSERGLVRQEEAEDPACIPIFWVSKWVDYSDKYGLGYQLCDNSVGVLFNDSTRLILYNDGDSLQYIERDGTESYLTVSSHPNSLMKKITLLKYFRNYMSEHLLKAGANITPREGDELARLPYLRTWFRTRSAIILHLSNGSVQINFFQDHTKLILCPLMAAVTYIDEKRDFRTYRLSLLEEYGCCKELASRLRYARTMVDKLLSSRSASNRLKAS
T2 sequence (P04049 whole entry): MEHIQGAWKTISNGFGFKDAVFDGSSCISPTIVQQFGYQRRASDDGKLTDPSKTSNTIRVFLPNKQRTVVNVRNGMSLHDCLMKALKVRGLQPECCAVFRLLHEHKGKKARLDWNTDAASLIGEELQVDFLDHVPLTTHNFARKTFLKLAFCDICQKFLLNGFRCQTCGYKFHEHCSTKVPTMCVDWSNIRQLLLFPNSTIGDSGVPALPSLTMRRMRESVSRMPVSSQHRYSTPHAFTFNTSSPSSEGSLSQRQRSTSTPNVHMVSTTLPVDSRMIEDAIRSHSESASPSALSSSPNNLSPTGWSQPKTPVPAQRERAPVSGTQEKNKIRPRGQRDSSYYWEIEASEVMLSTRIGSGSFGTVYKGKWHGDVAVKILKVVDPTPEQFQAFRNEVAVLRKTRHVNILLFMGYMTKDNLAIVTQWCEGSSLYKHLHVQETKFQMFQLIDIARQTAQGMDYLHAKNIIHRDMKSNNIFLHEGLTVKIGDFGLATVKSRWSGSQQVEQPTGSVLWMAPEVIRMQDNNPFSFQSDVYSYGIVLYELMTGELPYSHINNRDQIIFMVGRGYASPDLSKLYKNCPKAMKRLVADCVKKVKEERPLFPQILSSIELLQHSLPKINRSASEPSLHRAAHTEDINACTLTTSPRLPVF
T2 sequence (P15056 whole entry): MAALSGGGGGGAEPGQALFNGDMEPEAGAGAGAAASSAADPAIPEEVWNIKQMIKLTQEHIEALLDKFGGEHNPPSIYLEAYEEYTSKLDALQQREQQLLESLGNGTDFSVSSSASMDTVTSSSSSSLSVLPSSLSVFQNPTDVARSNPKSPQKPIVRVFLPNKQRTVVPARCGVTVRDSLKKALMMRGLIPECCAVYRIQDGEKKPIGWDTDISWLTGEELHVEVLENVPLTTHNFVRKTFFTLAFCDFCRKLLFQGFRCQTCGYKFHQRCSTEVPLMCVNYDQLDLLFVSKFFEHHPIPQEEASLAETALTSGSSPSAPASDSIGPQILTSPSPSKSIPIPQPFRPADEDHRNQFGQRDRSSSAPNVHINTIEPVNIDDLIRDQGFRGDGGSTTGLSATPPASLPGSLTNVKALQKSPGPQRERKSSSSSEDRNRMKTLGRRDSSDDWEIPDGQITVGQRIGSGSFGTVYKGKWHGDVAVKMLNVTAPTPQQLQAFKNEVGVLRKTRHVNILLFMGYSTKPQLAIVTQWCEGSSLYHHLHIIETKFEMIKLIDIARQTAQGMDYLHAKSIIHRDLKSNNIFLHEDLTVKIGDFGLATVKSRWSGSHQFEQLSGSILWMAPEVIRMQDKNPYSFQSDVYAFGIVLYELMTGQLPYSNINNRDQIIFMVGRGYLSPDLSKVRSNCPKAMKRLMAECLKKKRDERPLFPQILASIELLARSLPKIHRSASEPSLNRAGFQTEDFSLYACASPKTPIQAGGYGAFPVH
Chain of GST-PBD367-603 of Plk1 (P53350 367-603): as the sequence (P53350 367-603) above
T3 sequence (P53350 326-603): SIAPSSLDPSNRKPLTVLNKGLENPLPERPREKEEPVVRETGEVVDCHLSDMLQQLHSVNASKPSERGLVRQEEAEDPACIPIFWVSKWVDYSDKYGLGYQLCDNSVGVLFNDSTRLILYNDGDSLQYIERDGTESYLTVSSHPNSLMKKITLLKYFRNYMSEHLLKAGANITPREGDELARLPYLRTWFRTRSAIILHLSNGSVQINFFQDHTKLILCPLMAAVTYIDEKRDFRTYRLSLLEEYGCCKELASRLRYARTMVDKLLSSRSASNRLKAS
T4 sequence (P53350 whole entry): as the sequence (P53350 whole entry) above

COc1ccc(-c2oc3ccccc3c(=O)c2OS(=O)(=O)c2cc(Cl)ccc2Cl)cc1 [Cpd 122]
activity in the FP assay (GST-PBD367-603 of Plk1; 50 μM): little or no activity
2 > pericentrin foci (percentage of cells) (HeLa cells [1]): 65 ± 2%
Disorganized spindles (percentage of cells) (HeLa cells [1]): 85 ± 5%
Confirmation Plk1-Map (transient) % Inihibition (Plk1-Map interaction [2]): -1.93%
Confirmation Plk1-Map (transient) % Quench RLuc (Plk1-Map interaction [2]): 25.69%
Primary screen CRAF-BRAF (transient) % Inihibition (CRAF-BRAF; 10-25 μM): -8.30%
Primary screen CRAF-BRAF (transient) % Quench RLuc (CRAF-BRAF; 10-25 μM): 44.16%
Confirmation CRAF-BRAF (transient) % Inihibition (CRAF-BRAF; confirmation screen): 3.03%
Confirmation CRAF-BRAF (transient) % Quench RLuc (CRAF-BRAF; confirmation screen): 35.15%
Primary screen Plk1-Map (stable) % Inihibition (Plk1-Map interaction [3]; 10-25 μM, 2 h): 44.05%
Primary screen Plk1-Map (stable) % Quench RLuc (Plk1-Map interaction [3]; 10-25 μM, 2 h): 86.60%
Confirmation Plk1-Map (stable) % Inihibition (Plk1-Map interaction [3]; confirmation screen): 30.57%
Confirmation Plk1-Map (stable) % Quench RLuc (Plk1-Map interaction [3]; confirmation screen): 79.14%
effect on mitotic index, purchased compounds (HeLa cells [4]): significant increase
Average-Beads (mean luminescence) (Plk1-Map interaction [5]; 10-25 μM, 2 h): 1,018,574
Co-IP Values relative to top in plate column = 1 (Plk1-Map interaction [5]; 10-25 μM, 2 h): 0.776
effect on the Plk1-Map interaction in co-IP (Plk1-Map interaction [5]; 10-25 μM, 2 h): no effect
Relative Luminescence Unit (Plk1-Map interaction [5]; mean divided by maximum mean of the compounds): 0.776
effect on mitotic index, purchased compounds (HEK293T cells): significant increase

C=CS(=O)(=O)c1cc(C(F)(F)F)cc(C)n1 [Cpd 161, 2-methyl-4-(trifluoromethyl)-6-(vinylsulfonyl) pyridine]
mobility shift of the PBD in SDS-PAGE (His-PBD326-603 [6]): appeared higher in the gel, a few kDa above the protein treated with DMSO alone
alkylated residues very near the phosphopeptide binding site (His-PBD326-603 [7]): His489; also recorded: Lys492
residues of the PBD found alkylated (His-PBD326-603 [7]; 2.5 mM TQ, 2.5 mM Cpd 161 or 250 μM Poloxin, 3 hours): cysteines, lysines and histidines
IC50 (GST-PBD367-603 of Plk1; FP - IC50 (μM), Table S3): 8.3 ± 2.6 µM
activity in the FP assay (GST-PBD367-603 of Plk1; SAR): showed the same activity as Cpd 16
time to completion of reaction with amino-protected cysteine [8]: approximately 10 minutes
time to completion of reaction with amino-protected lysine [8]: approximately 10 minutes

CC1=CC(=O)C(C(C)C)=CC1=O [TQ, Thymoquinone]
concentrations required to disrupt mitosis and induce apoptosis (mitosis): high micromolar concentrations
2 > pericentrin foci (percentage of cells) (HeLa cells [1]): 33 ± 9%
Disorganized spindles (percentage of cells) (HeLa cells [1]): 56 ± 8%
time to completion of reaction with amino-protected cysteine [8]: approximately 10 minutes

B1: FITC-GIAVPDEREFDIEADMRPHEL (Map peptide) (peptide)
peptide: {FITC}-GIAVPDEREFDIEADMRPHEL
notes: small peptide derived from Drosophila Map205; also called small peptide derived from Map205 coupled to FITC; source: synthetic peptide (Bio Basic inc., >95% pure)
binding result [9]: binds

B2: FITC-GPMQS{T}PLNG (FITC-labeled PBD-binding phosphopeptide) (peptide)
peptide: {FITC}-GPMQS[pT]PLNG
notes: also called FITC-phosphopeptide; source: synthetic peptide (Bio Basic inc., >95% pure)
binding result (human GST-PBD_(367-603)): binds

B3: unlabeled phosphopeptide GPMQS{T}PLNG (peptide)
peptide: GPMQS[pT]PLNG
notes: as m7 but without FITC in N-terminal; also called corresponding unlabeled phosphopeptide; equivalent unlabeled peptide; source: synthetic peptide (Bio Basic inc., >95% pure)
binding result (human GST-PBD_(367-603)): binds
